Patent publication US9550728B2, “Thermo-responsive draw solute for forward osmosis and method for water desalination and purification using the same” (SEOUL NATIONAL UNIVERSITY R&DB FOUNDATION, priority 2011, dated 2017)
Blank lines part the entries; values can stand above or below the compound they belong to.

What was measured:
[1] = Measurement of transmittances of aqueous draw solute solutions according to temperature variation (UV/IR spectrometer); format: physicochemical
Procedure: For this observation, the transmittances of aqueous solutions of the draw solutes were measured using a UV/IR spectrometer.

[2] = Verification of reproducibility of forward osmosis experiments (repeated low/high temperature cycles); settings: 2.0 M nBu-DETA, positive = flow from brine to nBu-DETA solution
Description: A draw solute for a forward osmosis process should be able to be continuously reused after the process. […] FIG. 26 is a graph showing changes in the flux of water during repeated experiments using 2.0 M nBu-DETA.
In a conventional process using ammonium carbonate/ammonium hydroxide, recondensation is required to reuse recovered ammonia and carbon dioxide molecules. In contrast, in the three repeated cycles of forward osmosis using nBu-DETA as a draw solute, any special process for dissolution except stirring was not carried out but the solute having undergone a phase transition were dissolved when hot water was exchanged with cold water in the thermostatic bath. As a result, similar levels of fluxes were obtained, which can be seen from FIG. 26 and Table 9.

[3] = Measurement of flows and fluxes of water in forward osmosis through cellulose acetate semi-permeable membrane (brine vs draw solution)
Procedure: Referring to FIG. 11, the system has a structure in which glass tubes are arranged to face each other through a semi-permeable membrane. Unpurified water is arranged in one of the glass tubes and a draw solution is arranged in the other glass tube. After the glass tubes are placed in a temperature-controllable water bath, water desalination and purification experiments are conducted. Specifically, the experiments using LCST draw solutes are carried out in the order of low temperature (homogeneous phase) and high temperature (phase transition). The experiments using UCST draw solutes are carried out in the order of high temperature (homogeneous phase) and low temperature (phase transition). As the semi-permeable membrane, a cellulose acetate semi-permeable membrane is used. Specifically, the semi-permeable membrane includes a support layer composed of a polyester fiber coated with polyethylene and a dense layer composed of a cellulose triacetate fiber. The semi-permeable membrane is characterized by the ability to remove 95% or more of salts and low-molecular-weight materials.
Forward osmosis experiments were conducted at laboratory level using the thermo-responsive draw solutes synthesized above. The fluxes and directivities of water at low/high temperatures were confirmed with varying concentrations of brines and the draw solutions.
A stirrer was installed to maintain a uniform state of the solution in each glass tube and a thermostatic bath was installed for temperature control. After the temperature was maintained constant, the flux of water was measured. The amount of water flowing through the membrane was expressed in volume per unit area of the membrane and unit time (L/m^2h, LMH). The fluxes and directivities of water at low and high temperatures were measured at time points of each experiment. For better visual observation, a slight amount of dye was added to the system.

[4] = aqueous solution of UCST draw solute at temperatures equal to or higher than the reference temperature
[5] = aqueous solution of LCST draw solute at temperatures lower than the reference temperature

Transmittance [1, 5]: 100%
Structure (SMILES): CCCCCOCC(C)O (stereo not drawn) [PNP]

Flux (LMH) ([3]; 2 M DEH, 0.025 M NaCl, 40 (+0.5)° C., flow direction DEH→NaCl): 1.6422 LMH
Flux (LMH) ([3]; 2 M DEH, 0.05 M NaCl, 40 (+0.5)° C., DEH→NaCl): 1.1 LMH
Flux (LMH) ([3]; 2 M DEH, 0.1 M NaCl, 40 (+0.5)° C., DEH→NaCl): 0.71 LMH
Flux (LMH) ([3]; 2 M DEH, 0.15 M NaCl, 40 (+0.5)° C., DEH→NaCl): 0.36 LMH
Flux (LMH) ([3]; 4.0 M DEH, 0.60 M NaCl, 18 (±0.5)° C., flow direction NaCl→DEH): 0.29 LMH
Transmittance [1, 5]: 100%
Structure (SMILES): CCCCCCOCCOCCO [DEH]

Transmittance [1, 5]: 100%
Structure (SMILES): CCCCC(=O)NCCCN(C)CCCNC(=O)CCCC [Val-DAPMA]

Transmittance [1, 5]: 100%
Structure (SMILES): CCCC(=O)NCCCN(C)CCCNC(=O)CCC [nBu-DAPMA]

Further lines, the compound ahead of its results:

Structure (SMILES): CC(C)C(N)=O [IBAm]
Transmittance [1, 4]: 100%

Structure (SMILES): CCCC(=O)NCCN(C(C)C)C(C)C [nBu-DIPA]
Transmittance [1, 5]: 100%

Structure (SMILES): CCCC(=O)NCCN(CCNC(=O)CCC)C(=O)CCC [nBu-DETA]
Flux (L/m^2h) ([2]; 18° C., 1 Cycle): 0.61 L/m^2h
Flux (L/m^2h) ([2]; 18° C., 2 Cycle): 0.71 L/m^2h
Flux (L/m^2h) ([2]; 18° C., 3 Cycle): 0.71 L/m^2h
Flux (L/m^2h) ([2]; 70° C., 1 Cycle): −0.64 L/m^2h
Flux (L/m^2h) ([2]; 70° C., 2 Cycle): −0.79 L/m^2h
Flux (L/m^2h) ([2]; 70° C., 3 Cycle): −0.61 L/m^2h
Flux of water ([3]; 0.5M nBu-DETA draw solution, 0.050M NaCl, 18 (±0.5)° C., flow direction NaCl→nBu-DETA): 1.3 LMH
Flux of water ([3]; 0.5M nBu-DETA, 0.10M NaCl, 18 (±0.5)° C., NaCl→nBu-DETA): 0.90 LMH
Flux of water ([3]; 0.5M nBu-DETA, 0.15M NaCl, 18 (±0.5)° C., NaCl→nBu-DETA): 0.52 LMH
Flux of water ([3]; 1.0M nBu-DETA, 0.10M NaCl, 18 (±0.5)° C., NaCl→nBu-DETA): 1.5 LMH
Flux of water ([3]; 1.0M nBu-DETA, 0.15M NaCl, 70 (±0.5)° C., nBu-DETA→NaCl): 0.93 LMH
Flux of water ([3]; 1.0M nBu-DETA, 0.20M NaCl, 18 (±0.5)° C., NaCl→nBu-DETA): 0.77 LMH
Flux of water ([3]; 1.0M nBu-DETA, 0.2M NaCl, 70 (±0.5)° C., nBu-DETA→NaCl): 0.96 LMH
Flux of water ([3]; 1.0M nBu-DETA, 0.30M NaCl, 18 (±0.5)° C., NaCl→nBu-DETA): 0.52 LMH
Flux of water ([3]; 1.0M nBu-DETA, 0.35M NaCl, 70 (±0.5)° C., nBu-DETA→NaCl): 1.4 LMH
Flux of water ([3]; 1.0M nBu-DETA, 0.5M NaCl, 70 (±0.5)° C., nBu-DETA→NaCl): 1.8 LMH
Flux of water ([3]; 1.6M nBu-DETA, 0.15M NaCl, 70 (±0.5)° C., nBu-DETA→NaCl): 1.2 LMH
Flux of water ([3]; 1.6M nBu-DETA, 0.25M NaCl, 70 (±0.5)° C., nBu-DETA→NaCl): 1.2 LMH
Flux of water ([3]; 1.6M nBu-DETA, 0.35M NaCl, 70 (±0.5)° C., nBu-DETA→NaCl): 1.3 LMH
Flux of water ([3]; 1.6M nBu-DETA, 0.5M NaCl, 70 (±0.5)° C., nBu-DETA→NaCl): 1.2 LMH
Flux of water ([3]; 2.0M nBu-DETA, 0.05M NaCl, 70 (±0.5)° C., flow direction nBu-DETA→NaCl): −0.071 LMH
Flux of water ([3]; 2.0M nBu-DETA, 0.1M NaCl, 70 (±0.5)° C., nBu-DETA→NaCl): 0.36 LMH
Flux of water ([3]; 2.0M nBu-DETA, 0.15M NaCl, 70 (±0.5)° C., nBu-DETA→NaCl): 0.75 LMH
Flux of water ([3]; 2.0M nBu-DETA, 0.20M NaCl, 18 (±0.5)° C., NaCl→nBu-DETA): 1.7 LMH
Flux of water ([3]; 2.0M nBu-DETA, 0.25M NaCl, 70 (±0.5)° C., nBu-DETA→NaCl): 0.96 LMH
Flux of water ([3]; 2.0M nBu-DETA, 0.35M NaCl, 70 (±0.5)° C., nBu-DETA→NaCl): 1.2 LMH
Flux of water ([3]; 2.0M nBu-DETA, 0.40M NaCl, 18 (±0.5)° C., NaCl→nBu-DETA): 0.65 LMH
Flux of water ([3]; 2.0M nBu-DETA, 0.5M NaCl, 70 (±0.5)° C., nBu-DETA→NaCl): 1.4 LMH
Flux of water ([3]; 2.0M nBu-DETA, 0.60M NaCl, 18 (±0.5)° C., NaCl→nBu-DETA): 0.26 LMH
Transmittance [1, 5]: 100%

Structure (SMILES): CCCCNC(=O)CC [N-BPA]
Transmittance [1, 5]: 100%

Structure (SMILES): CCN(CC)CCNC(=O)C(C)C [iBu-DEEA]
Transmittance [1, 5]: 100%

Structure (SMILES): CC(C)C(=O)O [IBA]
Transmittance [1, 4]: 100%

Structure (SMILES): OCCOc1ccccc1 [EGPE]
Flux of water from EGPE to NaCl ([3]; 6.4 M EGPE, 0.15 M brine, 5° C. (phase transition)): 0.036 LMH
Flux of water from NaCl to EGPE ([3]; 6.4 M EGPE, 0.3 M brine, 50° C.): 0.14 LMH
Transmittance [1, 4]: 100%

Structure (SMILES): CCCCC(=O)NCCN(CC)CC [Val-DEEA]
Transmittance [1, 5]: 100%
